The results in this text go back to patent publication US20230126204A1, “[1,3]DIAZINO[5,4-d]PYRIMIDINES AS HER2 INHIBITORS” (Boehringer Ingelheim International GmbH, priority 2020, published 2023).

Holding throughout (assay type): cell-based
Experiment [1] has as its system NCI-H2170 HER2 YVMA cells. Nature of the experiment: Tumor cell proliferation assay NCI-H2170 HER2 YVMA. The note with it: Homo sapiens, 72 h, CellTiter-Glo, read-out: GI50 NCI H-2170 HER2 YVMA. The text has this:
HER2 YVMA tumor cell line model generation and proliferation assays
Homology-directed genome engineering was employed to insert a 12 nucleotide sequence encoding YVMA into Exon 20 of the genomic HER2 locus in NCI-H2170 cells. […] The DNA template containing the HER2 exon 20 YVMA insertion variant was obtained from GenScript. PCR followed by Sanger sequencing was used to confirm the presence of the 12-nucleotide insertion in HER2 Exon 20 resulting in the YVMA amino acid duplication.
(§1) For proliferation assays, NCI-H2170 (HER2 wild type), NCI-H2170 HER2 YVMA and EGFR WT dependent A431 cells were used. NCI-H2170 HER2 YVMA or NCI-H2170 cells were seeded into 96-well plates at 750 cells/60 μL in growth media (RPMI ATCC+10% FBS, +Penicillin/Streptomycin). […] Compounds were added by using a HP D3000 Digital Dispenser one day after plating the cells. All treatments were performed in technical triplicates. Treated cells were incubated for 72 h at 37° C. with 5% CO2. CellTiter-Glo® Luminescent Cell Viability Assay (Promega) was performed and chemoluminescence was measured by using the multilabel Plate Reader VICTOR X4. The raw data were imported into and analyzed with the Boehringer Ingelheim proprietary software MegaLab (curve fitting based on the program PRISM, GraphPad Inc.).
(In general: ATP-based viability assays read luminescence as a measure of living cells.)

For experiment [2], the system named is Ba/F3 cells EGFR WT. Description: Ba/F3 proliferation assay EGFR WT (EGF dependent). The note with it: Mus musculus, CellTiter-Glo, read-out: GI50 BAF3 EGF dep. The method, then: (§2) Ba/F3 cell model generation and proliferation assays
(§3) Plasmids containing HER2 mutants and EGFR WT were obtained from GeneScript. To generate EGFR/HER2-dependent Ba/F3 models, Ba/F3 cells were transduced with retroviruses containing vectors that harbor EGFR WT, HER2 WT or HER2 mutants (YVMA). Platinum-E cells (Cell Biolabs) were used for retrovirus packaging. Retrovirus was added to Ba/F3 cells. To ensure infection, 4 μg/mL polybrene was added and cells were spinfected. Infection efficiency was confirmed by measuring GFP-positive cells using a cell analyzer. Cells with an infection efficiency of 10% to 20% were further cultivated and puromycin selection with 1 μg/mL was initiated. As a control, parental Ba/F3 cells were used to assess the selection status. Selection was considered successful when parental Ba/F3 cells cultures died. To evaluate the transforming potential of HER2 mutations, the growth medium was no longer supplemented with IL-3. Ba/F3 cells harboring the empty vector were used as a control. A switch from IL-3 to EGF was performed for Ba/F3 cells with the EGFR WT known for its dependency on EGF ligand. Approximately ten days before conducting the experiments, puromycin was left out. For proliferation assays (data in table 12 and 14), Ba/F3 cells were seeded into 96-well plates at 5×10^3 cells/100 μL in growth media. Compounds were added by using a HP D3000 Digital Dispenser. All treatments were performed in technical triplicates. Treated cells were incubated for 72 h at 37° C. with 5% CO2. CellTiter-Glo® Luminescent Cell Viability Assay (Promega) was performed and chemoluminescence was measured by using the multilabel Plate Reader VICTOR X4. The raw data were imported into and analyzed with the Boehringer Ingelheim proprietary software MegaLab (curve fitting based on the program PRISM, GraphPad Inc.).

In experiment [3] the test system is Ba/F3 cells HER2 WT. Nature of the experiment: Ba/F3 proliferation assay HER2 WT. The note with it: Mus musculus, BaF3, 72 h, CellTiter-Glo. The method, then: as §2, §3
Experiment [4] has as its target T1, EGFR wild type (WT) (Homo sapiens, UniProt P00533).
T1 construct: expressed in transfected cells; host or cells: human HEK cells (ATCC CRL-1573), retroviral transduction, puromycin selection
Nature of the experiment: pEGFR assay (AlphaScreen Surefire, HEK cells). To be noted: HEK cells expressing EGFR WT, phosphorylation at Tyr1068, 4 h. The method, then:
This assay quantifies the phosphorylation of EGFR at Tyr1068 and was used to measure the inhibitory effect of compounds on the transgenic EGFR wild type (WT) protein expressed in HEK cells.
Transduced cells were selected using puromycin. p-EGFR Tyr1068 was determined using the AlphaScreen Surefire pEGF Receptor (Tyr1068) Assay (PerkinElmer, TGRERS). For the assay, HEK EGFR WT cells were seeded in MEM medium with 10% FBS. […] Subsequently, 60.000 cells/well in 60 μL were added. Cells were incubated with compounds for 4 h at 37° C. […] The mixture was incubated at a temperature of 20-25° C. with shaking (700 rpm) for 20 min. After centrifugation, 4 μL of the lysate were transferred to Proxiplates. […] Plates were shaken for 1 min (1400 rpm) and incubated for 2 h at a temperature of 20-25° C. in the dark.
This cellular phospho-EGFR (pEGFR) compound dose-response assay quantifies the phosphorylation of EGFR at Tyr1068 in HEK cells expressing EGFR WT. The results of the assay are provided as IC50 values.
In general terms: Alpha assays give light when donor and acceptor beads are brought close together.

The target in experiment [5] is T2, HER2 YVMA (Homo sapiens, UniProt P04626, INS775YVMA).
T2 construct: expressed in transfected cells; host or cells: human HEK cells, retroviral transduction, puromycin selection, doxycycline-inducible expression
T2 sequence (P04626 with tags, fused parts or gaps INS775YVMA): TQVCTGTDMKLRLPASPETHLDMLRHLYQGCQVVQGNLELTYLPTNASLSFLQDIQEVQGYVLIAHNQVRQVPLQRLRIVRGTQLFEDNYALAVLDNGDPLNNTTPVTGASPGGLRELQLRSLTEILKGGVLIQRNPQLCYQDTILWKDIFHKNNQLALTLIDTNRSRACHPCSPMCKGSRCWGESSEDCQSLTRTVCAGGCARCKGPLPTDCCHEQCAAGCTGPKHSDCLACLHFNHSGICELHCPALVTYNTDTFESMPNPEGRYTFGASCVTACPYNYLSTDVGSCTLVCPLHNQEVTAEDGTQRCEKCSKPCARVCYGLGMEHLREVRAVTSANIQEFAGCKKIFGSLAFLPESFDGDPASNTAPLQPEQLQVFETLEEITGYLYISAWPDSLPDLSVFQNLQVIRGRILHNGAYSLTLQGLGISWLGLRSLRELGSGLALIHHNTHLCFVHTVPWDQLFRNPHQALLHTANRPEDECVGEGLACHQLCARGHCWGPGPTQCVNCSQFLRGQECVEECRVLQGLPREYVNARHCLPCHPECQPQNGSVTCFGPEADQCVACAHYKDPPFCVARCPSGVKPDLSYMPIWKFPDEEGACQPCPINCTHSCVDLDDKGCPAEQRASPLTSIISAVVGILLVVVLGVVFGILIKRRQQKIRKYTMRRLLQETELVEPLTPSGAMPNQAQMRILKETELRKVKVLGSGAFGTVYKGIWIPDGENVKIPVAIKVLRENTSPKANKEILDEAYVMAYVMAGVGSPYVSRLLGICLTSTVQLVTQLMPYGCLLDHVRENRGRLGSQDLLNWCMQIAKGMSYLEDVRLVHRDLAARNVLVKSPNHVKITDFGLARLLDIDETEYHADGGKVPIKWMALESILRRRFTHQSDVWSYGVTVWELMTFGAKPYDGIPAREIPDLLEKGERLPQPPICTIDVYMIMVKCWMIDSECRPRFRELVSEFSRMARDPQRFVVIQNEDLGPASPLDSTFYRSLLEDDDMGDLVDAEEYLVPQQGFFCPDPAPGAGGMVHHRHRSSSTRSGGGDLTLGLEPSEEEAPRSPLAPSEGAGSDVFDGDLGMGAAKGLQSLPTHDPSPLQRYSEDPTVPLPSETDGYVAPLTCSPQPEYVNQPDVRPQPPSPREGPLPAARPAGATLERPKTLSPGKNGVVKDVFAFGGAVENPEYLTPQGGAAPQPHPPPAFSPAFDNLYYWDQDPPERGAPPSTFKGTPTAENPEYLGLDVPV
Nature of the experiment: pHER2 (ERBB2) YVMA assay (AlphaScreen Surefire, HEK cells). To be noted: HEK cells expressing HER2 YVMA, phosphorylation at Tyr1221/1222, 4 h. The method, then:
For the assay, HEK HER2 YVMA cells were seeded in MEM medium with 10% FBS. 4 hours prior to compound addition, HER2 YVMA expression was induced using 1 μg/ml Doxycycline. […] Subsequently, 60.000 cells/well in 60 μL were added. Cells were incubated with compounds for 4 h at 37° C. […] The mixture was incubated at a temperature of 20-25° C. with shaking (700 rpm) for 20 min. After centrifugation, 4 μL of the lysate were transferred to Proxiplates. […] Plates were shaken for 1 min (1400 rpm) and incubated for 2 h at a temperature of 20-25° C. in the dark.
The results of the assay are provided as IC50 values.

The subject of experiment [6] is Ba/F3 cells HER2 mutants (YVMA). Description: Ba/F3 proliferation assay HER2 YVMA. To be noted: Mus musculus, BaF3, 72 h, CellTiter-Glo. The method, then: as §2, §3
The test system of experiment [7] is NCI-H2170 (HER2 wild type) cells. Nature of the experiment: Tumor cell proliferation assay NCI-H2170 (HER2 wild type). The note with it: Homo sapiens, 72 h, CellTiter-Glo, read-out: GI50 NCI H-2170 HER2 wt amp. The method, then: as §1
The subject of experiment [8] is EGFR WT dependent A431 cells. Description: Tumor cell proliferation assay A431 (EGFR WT dependent). The note with it: Homo sapiens, A-431, 72 h, CellTiter-Glo, read-out: GI50 A431 EGFR wt amp. The method, then:
as §1

Where [9] appears, read: BaF3, EGF instead of IL-3, 72 h.
The mark [10] stands for this setting: BaF3, prior art compounds, EGF instead of IL-3, 72 h.

Read-outs that look alike come from different tables or passages of the source. Bounds are passed on as bounds.

T1 sequence (P00533 25-1210): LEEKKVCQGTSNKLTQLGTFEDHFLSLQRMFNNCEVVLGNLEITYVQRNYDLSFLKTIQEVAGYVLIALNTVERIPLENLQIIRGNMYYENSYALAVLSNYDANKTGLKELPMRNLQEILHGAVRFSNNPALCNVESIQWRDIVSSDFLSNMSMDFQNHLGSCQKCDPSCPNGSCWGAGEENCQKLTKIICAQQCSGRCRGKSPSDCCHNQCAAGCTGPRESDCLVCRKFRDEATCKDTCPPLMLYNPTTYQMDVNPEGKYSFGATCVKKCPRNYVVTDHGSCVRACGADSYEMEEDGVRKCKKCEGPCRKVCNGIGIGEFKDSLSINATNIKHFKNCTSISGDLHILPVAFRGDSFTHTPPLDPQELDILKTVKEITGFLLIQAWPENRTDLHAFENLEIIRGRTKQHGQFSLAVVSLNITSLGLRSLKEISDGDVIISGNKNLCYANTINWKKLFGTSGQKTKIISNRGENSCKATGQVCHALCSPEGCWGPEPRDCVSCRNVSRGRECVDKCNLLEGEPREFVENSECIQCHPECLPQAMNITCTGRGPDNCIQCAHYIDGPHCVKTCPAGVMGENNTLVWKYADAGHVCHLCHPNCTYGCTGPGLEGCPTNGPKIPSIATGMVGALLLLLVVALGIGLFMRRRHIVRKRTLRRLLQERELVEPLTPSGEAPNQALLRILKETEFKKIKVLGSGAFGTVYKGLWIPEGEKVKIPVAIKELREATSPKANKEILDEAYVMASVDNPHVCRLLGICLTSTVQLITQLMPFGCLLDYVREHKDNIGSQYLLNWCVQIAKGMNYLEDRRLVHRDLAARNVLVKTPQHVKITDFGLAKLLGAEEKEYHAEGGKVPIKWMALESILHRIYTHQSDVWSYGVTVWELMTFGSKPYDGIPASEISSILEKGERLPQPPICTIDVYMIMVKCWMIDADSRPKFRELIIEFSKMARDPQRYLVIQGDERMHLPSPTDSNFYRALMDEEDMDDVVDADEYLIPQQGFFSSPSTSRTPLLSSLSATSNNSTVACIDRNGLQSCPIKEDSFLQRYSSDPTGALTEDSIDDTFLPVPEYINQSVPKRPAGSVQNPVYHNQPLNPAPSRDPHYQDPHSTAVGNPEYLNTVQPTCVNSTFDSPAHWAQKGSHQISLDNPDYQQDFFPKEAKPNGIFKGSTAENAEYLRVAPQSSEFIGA

Regarding `C=CC(=O)N1CCN(c2ncc3ncnc(Nc4ccc(Oc5ccc6c(c5)ncn6C)c(C)c4)c3n2)CC1` [Compound I-1], the GI50 (in general, the concentration at which growth is held to half of that of the control) in experiment [1] was 0.082 µM; in experiment [2] (setting [9]), 2.4 µM; in experiment [3] it was 0.001 µM; in experiment [6], 0.018 µM; in experiment [7], 0.016 µM; in experiment [8] it was > 5 µM. Besides, the IC50 (commonly the concentration at which inhibition is half-maximal) in experiment [4] stood at 0.265 µM; in experiment [5], 0.01 µM.

Regarding `C#Cc1cc(Nc2ncnc3cnc(N4CCN(C(=O)C=C)CC4)nc23)ccc1Oc1ccc2c(c1)ncn2C` [Compound I-2], the GI50 in experiment [1] stood at 0.05 µM; in experiment [2] (setting [9]), 1.38 µM; in experiment [3] it was 0.001 µM; in experiment [6], 0.009 µM; in experiment [7], 0.009 µM; in experiment [8], 4.66 µM. Further, the results for the IC50 in experiment [4] and in experiment [5] were 0.38 µM and 0.01 µM, respectively.

With `C=CC(=O)N1CCN(c2ncc3ncnc(Nc4ccc(Oc5ccc6c(c5)ncn6C)c(OC)c4)c3n2)CC1` [Compound I-3], the GI50 in experiment [1] is 0.074 µM; in experiment [2] (setting [9]), 2.8 µM; in experiment [3], 0.001 µM; in experiment [6] it was 0.012 µM; in experiment [7] it was 0.018 µM; in experiment [8], > 5 µM. Besides, the results for the IC50 in experiment [4] and in experiment [5] were 1.17 µM and 0.017 µM, respectively.

As to `C=CC(=O)N1CCN(c2ncc3ncnc(Nc4ccc(Oc5ccc6c(c5)ncn6C)c(Cl)c4)c3n2)CC1` [Compound I-4], the GI50 is 0.081 µM in experiment [1]; 0.904 µM in experiment [2] (setting [9]); 0.002 µM in experiment [3]; 0.017 µM in experiment [6]; 0.011 µM in experiment [7]; > 5 µM in experiment [8]. Moreover, the results for the IC50 in experiment [4] and in experiment [5] were 0.221 µM and 0.01 µM, respectively.

With `C=CC(=O)N1CCN(c2ncc3ncnc(Nc4ccc(Oc5ccc6c(c5)ncn6C)c(Br)c4)c3n2)CC1` [Compound I-5], the GI50 in experiment [1] was 0.076 µM; in experiment [2] (setting [9]) it was 0.572 µM; in experiment [3], 0.001 µM; in experiment [6] it was 0.02 µM; in experiment [7] it was 0.016 µM; in experiment [8], 2.88 µM. In addition, the values for the IC50 in experiment [4] and in experiment [5] were 0.232 µM and 0.015 µM, respectively.

Take `C=CC(=O)N1CCN(c2ncc3ncnc(Nc4ccc(Oc5ccc6c(c5)ncn6C)c(F)c4)c3n2)CC1` [Compound I-6]: the GI50 turned out to be 0.146 µM in experiment [1]; 1.84 µM in experiment [2] (setting [9]); 0.003 µM in experiment [3]; 0.027 µM in experiment [6]; 0.026 µM in experiment [7]; 2.64 µM in experiment [8]. Besides, the IC50 came out at 1.11 µM in experiment [4] and 0.019 µM in experiment [5].

Consider `C=CC(=O)N1CCN(c2ncc3ncnc(Nc4cc(Cl)c(Oc5ccc6c(c5)ncn6C)c(Cl)c4)c3n2)CC1` [Compound I-7], for which the GI50 was 0.118 µM in experiment [1]; 1.11 µM in experiment [2] (setting [9]); 0.006 µM in experiment [3]; 0.037 µM in experiment [6]; 0.025 µM in experiment [7]; > 5 µM in experiment [8]. The figures for the IC50 in experiment [4] and in experiment [5] were 0.996 µM and 0.03 µM, respectively.

On to `C=CC(=O)Nc1ccc2ncnc(Nc3ccc(Oc4ccc5c(c4)ncn5C)c(C)c3)c2c1` [WO 2007/059257 Ex.185, reference compound], for which the GI50 in experiment [6] (prior art compounds) was 0.06 µM; in experiment [8] (prior art compounds), > 5 µM.

On to `C=CC(=O)Nc1cccc(-n2c(=O)c(Oc3ccc(F)cc3F)cc3cnc(Nc4cnn(C)c4)nc32)c1` [WO 2019/046775 Comp.2, reference compound], for which the GI50 in experiment [1] (prior art compounds) stood at 0.034 µM; in experiment [2] (setting [10]), 0.013 µM; in experiment [3] (prior art compounds), 0.003 µM; in experiment [6] (prior art compounds), 0.014 µM; in experiment [7] (prior art compounds), 0.022 µM; in experiment [8] (prior art compounds), 0.016 µM.

Take `C=CC(=O)Nc1ccc2ncnc(Nc3ccc(OCc4cccc(F)c4)c(Cl)c3)c2c1` [allitinib, reference compound]: the GI50 in experiment [2] (setting [10]) is 0.031 µM; in experiment [6] (prior art compounds), 0.017 µM; in experiment [7] (prior art compounds), 0.036 µM.

Regarding `C=CC(=O)N1CCC[C@@H](n2nc(-c3ccc(Oc4ccccc4)cc3)c3c(N)ncnc32)C1` [ibrutinib, reference compound], the values for the GI50 in experiment [2] (setting [10]), in experiment [6] (prior art compounds) and in experiment [7] (prior art compounds) were 0.07 µM, 0.044 µM and 0.016 µM, respectively.

With `CCOc1cc2ncc(C#N)c(Nc3ccc(OCc4ccccn4)c(Cl)c3)c2cc1NC(=O)/C=C/CN(C)C` [neratinib, reference compound], the 50% growth inhibitory concentration (GI50) in experiment [1] (prior art compounds) was 0.037 µM; in experiment [2] (setting [10]), 0.014 µM; in experiment [6] (prior art compounds) it was 0.005 µM; in experiment [7] (prior art compounds), 0.003 µM; in experiment [8] (prior art compounds), 0.055 µM.

For the compound `C=CC(=O)N1CCC(Oc2cc3c(Nc4ccc(Cl)c(Cl)c4F)ncnc3cc2OC)CC1` [poziotinib, reference compound], the GI50 in experiment [1] (prior art compounds) stood at 0.005 µM; in experiment [2] (setting [10]) it was 0.001 µM; in experiment [3] (prior art compounds), 0.001 µM; in experiment [6] (prior art compounds) it was 0.002 µM; in experiment [7] (prior art compounds) it was 0.001 µM; in experiment [8] (prior art compounds), 0.001 µM.

For `Cc1cc(Nc2ncnc3ccc(NC4=NC(C)(C)CO4)cc23)ccc1Oc1ccn2ncnc2c1` [tucatinib, reference compound], the results for the GI50 in experiment [3] (prior art compounds) and in experiment [7] (prior art compounds) were 0.01 µM and 0.058 µM, respectively.
